Reference: patent publication US8609836B2, “4-aryl-2-anilino-pyrimidines” (Janssen Pharmaceutica NV, priority 2008, dated 2013)

Tests used:
[1] = molecular target: PLK4 (h) (Homo sapiens, UniProt O00444); experiment: PLK-4 human kinase inhibition, scintillation proximity assay (SPA); assay type: biochemical; conditions: read-out: PLK4 pIC50 (converted)
[2] = molecular target: AuroraB (h) (Homo sapiens, UniProt Q96GD4); experiment: Aurora-B human kinase inhibition, SPA; assay type: biochemical; conditions: read-out: AuroraB pIC50 (converted)
Procedure, shortened: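 SPA with biotinylated peptide (3 μM) in 60 mM Hepes pH 7.5, Mg/Mn 3 mM each, 0.5 μM ATP plus [γ-33P]ATP, AuroraB at 0.5 μg/ml. The reaction runs 60 min at room temperature and is stopped with EDTA and streptavidin PVT beads. 33P-substrate is read by scintillation imaging.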

[3] = molecular target: GSK3β (h) (Homo sapiens, UniProt P49841); experiment: GSK-3β human kinase inhibition, SPA; assay type: biochemical; conditions: read-out: GSK3b pIC50 (converted)
Procedure, shortened: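 Scintillation proximity assay: GSK3β (1 μg/ml) with 1 μM biotinylated peptide, 1 μM ATP plus [γ-33P]ATP in Tris pH 7.4, MgCl2, DTT. 60 min at room temperature, stopped with EDTA and streptavidin PVT beads; phosphorylation read by Leadseeker imaging.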

[4] = molecular target: CDK1/CyclinB (h) (Homo sapiens, UniProt P06493); experiment: CDK1/CyclinB human kinase inhibition, Invitrogen's FRET assay (Z'lyte); assay type: biochemical; conditions: read-out: CDK1 pIC50 (converted)
Procedure, shortened: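 Z'lyte FRET assay: human CDK1/CyclinB (0.2 μg/ml) with 2 μM Ser/Thr peptide 12 and 10 μM ATP in 50 mM Hepes pH 7.5, MgCl2, EGTA, Brij-35, 60 min at room temperature. Protease development 60 min, then emission ratio 460/538 nm read with excitation at 390 nm.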

[5] = molecular target: CDK4/CyclinD1 (h) (Homo sapiens, UniProt P11802); experiment: CDK4/CyclinD1 human kinase inhibition, SPA with GST-pRb substrate; assay type: biochemical; conditions: read-out: CDK4 pIC50 (converted)
Experimental: The in vitro inhibition of a panel of kinases was assessed using either the scintillation proximity assay (SPA) as described by Cook, N. D. et al., Advances in Experimental Medicine and Biology (1991), 36; p. 525-528.
In the SPA technology the activity of the kinase of interest is measured using an appropriate biotinylated substrate that is incubated with the aforementioned kinase protein in the presence of (^33P) radiolabeled ATP. (^33P) Phosphorylation of the substrate is subsequently measured through binding of the phosphorylated substrate to streptavidine coated beads that are based on the scintillant poly(vinyl toluene) (PVT-Beads). The scintillation intensity is detected by imaging on Leadseeker.
All kinases are pre-diluted to a 10× working concentration prior to addition into the assay. The composition of the dilution buffer for each kinase is detailed below.
In a final reaction volume of 30 μl, CDK4/CyclinD1 (h) (2.5 μg/ml) is incubated with 50 mM Hepes pH 7.5, 8 mM NaF, 20 mM MgCl2, 1 mM DTT, 40 μg/ml of substrate GST-pRb, 2 nM [γ-^33P-ATP] (6.0 μCi/ml). After incubation of 60 minutes at room temperature, the reaction is stopped by addition of 40 μL of stop solution containing 8.7 mM EDTA, 0.17% Triton X-100, 25 mg/ml Glutathion SPA Beads (GE-healthcare). The plate is centrifuged and read for Scintillation topcount analyzer.

[6] = molecular target: PLK1 T210D (h) (Homo sapiens, UniProt P53350, T210D); experiment: PLK1 human kinase inhibition, SPA; assay type: biochemical; conditions: read-out: PLK1 pIC50 (converted)
Procedure, shortened: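 Radiometric SPA with PLK1 T210D (0.125 ng/ml) in 50 mM Hepes pH 8.0, 2 mM MnCl2, 1 mM DTT, 2 μM biotinylated peptide, 0.1 μM ATP plus 2 nM [γ-33P]ATP. 40 min at room temperature, EDTA stop. Phosphorylated substrate captured on streptavidin PVT beads, scintillation imaged.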

[7] = molecular target: PLK2 (h) (Homo sapiens, UniProt Q9NYY3); experiment: PLK2 human kinase inhibition, SPA; assay type: biochemical; conditions: read-out: PLK2 pIC50 (converted)
Procedure, shortened: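 SPA read on Leadseeker: PLK2 (30 μg/ml) with 2 μM biotinylated peptide, 0.1 μM ATP plus 2 nM [γ-33P]ATP in 50 mM Hepes pH 8.0, 2 mM MnCl2, 1 mM DTT. Reaction ran 20 min at room temperature, then EDTA stop and streptavidin PVT beads.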

[8] = molecular target: PLK3 (h) (Homo sapiens, UniProt Q9H4B4); experiment: PLK3 human kinase inhibition, SPA; assay type: biochemical; conditions: read-out: PLK3 pIC50 (converted)
Procedure, shortened: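 SPA: PLK3 (h) at 30 μg/ml with 2 μM biotinylated peptide, 0.1 μM ATP plus 2 nM [γ-33P]ATP in 50 mM Hepes pH 8.0, 2 mM MnCl2 and 1 mM DTT. Incubated 20 min at room temperature, then stopped with EDTA and streptavidin PVT beads. Scintillation imaged on Leadseeker.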

[9] = test system: HCT-116; experiment: Cellular proliferation assay (Alamar blue), HCT-116; assay type: cell-based; conditions: Homo sapiens, 10% FCS, 72 hours with compound, Alamar blue 4 h
Procedure, shortened: (§1)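 24 h seeding without compound, 10% FCS, 37° C/5% CO2; 72 h compound; Alamar blue (resazurin 9 μg/ml, ferro-/ferricyanide 90 μM) 4 h HCT-116, 6 h U87-MG, 24 h A2780/MDA-MB-231; fluorescence 544/590 nm vs control cells.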

[10] = test system: H1299; experiment: Cellular proliferation assay (Alamar blue), H1299; assay type: cell-based; conditions: Homo sapiens, NCI-H1299; 10% FCS; 72 hours with compound; Alamar blue 4 h
Experimental: (§2) […] functional properties of these compounds were tested in cellular proliferation assays on a panel of different cell lines in the presence of 10% FCS serum (37° C. and 5% (v/v) CO2). In a first step these cells were seeded and incubated for 24 hours in the absence of compound. In the second step the cells were incubated for 72 hours with the compounds to be tested for 72 hours. The viable cell number was finally assessed in a standard Alamar blue cell viability assay.
(§3) The viable cell number was assessed by incubation for either 4 h (HCT-116, H1299) 6 h (U87-MG) or 24 h (A2780, MDA-MB-231) with Alamar blue (Resazurin 9 μg/ml, K-Ferrocyanide 90 μM, K-Ferricyanide 90 μM) and the converted fluorescent product was quantified on a fluorescent plate reader (544 nm/590 nm). Effect of the compounds is calculated as of on control cells.

[11] = test system: MDA-MB-231; experiment: Cellular proliferation assay (Alamar blue), MDA-MB-231; assay type: cell-based; conditions: Homo sapiens, 10% FCS, 72 hours with compound, Alamar blue 24 h, read-out: MDA/MB231 (cellular proliferation assay, Table 4) (converted)
Experimental: as §2, §3

[12] = test system: U87-MG; experiment: Cellular proliferation assay (Alamar blue), U87-MG; assay type: cell-based; conditions: Homo sapiens, U-87 MG; 10% FCS; 72 hours with compound; Alamar blue 6 h; read-out: U87-MG (cellular proliferation assay, Table 4) (converted)
Procedure, shortened: as §1

[13] = test system: A2780; experiment: Cellular proliferation assay (Alamar blue), A2780; assay type: cell-based; conditions: Homo sapiens, 10% FCS, 72 hours with compound, Alamar blue 24 h, read-out: A2780 (cellular proliferation assay, Table 4) (converted)
Procedure, shortened: as §1

CDK1/CyclinB (h), sequence (P06493 whole entry): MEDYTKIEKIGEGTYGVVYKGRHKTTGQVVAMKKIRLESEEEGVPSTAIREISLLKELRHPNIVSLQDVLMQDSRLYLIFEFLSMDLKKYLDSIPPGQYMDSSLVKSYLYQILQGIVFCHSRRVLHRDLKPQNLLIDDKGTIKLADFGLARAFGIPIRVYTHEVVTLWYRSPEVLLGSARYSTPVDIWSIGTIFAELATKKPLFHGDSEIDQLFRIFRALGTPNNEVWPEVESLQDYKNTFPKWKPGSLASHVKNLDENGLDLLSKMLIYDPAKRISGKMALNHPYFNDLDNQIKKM
CDK1/CyclinB (h), sequence (P14635 whole entry partner): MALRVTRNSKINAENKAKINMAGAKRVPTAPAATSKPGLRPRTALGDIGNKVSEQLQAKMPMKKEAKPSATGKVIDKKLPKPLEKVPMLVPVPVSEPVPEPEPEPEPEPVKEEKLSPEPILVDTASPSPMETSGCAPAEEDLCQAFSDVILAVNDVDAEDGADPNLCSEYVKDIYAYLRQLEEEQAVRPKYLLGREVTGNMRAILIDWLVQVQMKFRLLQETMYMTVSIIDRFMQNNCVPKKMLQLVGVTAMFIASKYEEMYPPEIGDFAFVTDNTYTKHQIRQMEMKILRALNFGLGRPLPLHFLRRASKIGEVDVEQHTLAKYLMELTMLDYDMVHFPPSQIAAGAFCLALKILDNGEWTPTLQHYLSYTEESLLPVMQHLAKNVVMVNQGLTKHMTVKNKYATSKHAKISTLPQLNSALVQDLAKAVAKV
PLK3 (h), sequence (Q9H4B4 whole entry): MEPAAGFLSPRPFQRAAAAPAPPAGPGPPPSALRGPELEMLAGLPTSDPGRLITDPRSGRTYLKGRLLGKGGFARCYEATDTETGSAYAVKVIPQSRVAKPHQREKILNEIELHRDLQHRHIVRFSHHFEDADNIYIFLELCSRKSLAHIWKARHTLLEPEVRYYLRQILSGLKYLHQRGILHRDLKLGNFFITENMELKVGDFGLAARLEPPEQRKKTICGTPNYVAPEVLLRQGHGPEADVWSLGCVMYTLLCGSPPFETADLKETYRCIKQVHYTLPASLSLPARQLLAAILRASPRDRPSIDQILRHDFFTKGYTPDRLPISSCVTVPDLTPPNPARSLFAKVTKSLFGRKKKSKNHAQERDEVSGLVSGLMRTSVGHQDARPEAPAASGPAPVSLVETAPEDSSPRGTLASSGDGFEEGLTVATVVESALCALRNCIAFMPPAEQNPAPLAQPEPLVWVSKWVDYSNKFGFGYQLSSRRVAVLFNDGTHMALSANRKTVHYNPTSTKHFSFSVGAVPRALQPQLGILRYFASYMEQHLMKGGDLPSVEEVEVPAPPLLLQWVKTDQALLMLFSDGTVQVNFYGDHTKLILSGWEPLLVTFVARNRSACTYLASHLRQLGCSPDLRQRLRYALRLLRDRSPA
AuroraB (h), sequence (Q96GD4 whole entry): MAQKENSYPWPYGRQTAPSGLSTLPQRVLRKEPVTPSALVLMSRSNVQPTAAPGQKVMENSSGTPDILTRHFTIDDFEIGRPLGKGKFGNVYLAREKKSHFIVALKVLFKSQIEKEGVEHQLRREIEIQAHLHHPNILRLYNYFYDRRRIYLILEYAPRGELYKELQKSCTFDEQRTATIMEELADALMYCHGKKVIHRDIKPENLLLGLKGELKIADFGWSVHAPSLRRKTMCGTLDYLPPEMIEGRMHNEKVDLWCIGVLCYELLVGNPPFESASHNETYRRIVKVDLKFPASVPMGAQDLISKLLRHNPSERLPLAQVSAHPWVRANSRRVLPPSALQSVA
GSK3β (h), sequence (P49841 whole entry): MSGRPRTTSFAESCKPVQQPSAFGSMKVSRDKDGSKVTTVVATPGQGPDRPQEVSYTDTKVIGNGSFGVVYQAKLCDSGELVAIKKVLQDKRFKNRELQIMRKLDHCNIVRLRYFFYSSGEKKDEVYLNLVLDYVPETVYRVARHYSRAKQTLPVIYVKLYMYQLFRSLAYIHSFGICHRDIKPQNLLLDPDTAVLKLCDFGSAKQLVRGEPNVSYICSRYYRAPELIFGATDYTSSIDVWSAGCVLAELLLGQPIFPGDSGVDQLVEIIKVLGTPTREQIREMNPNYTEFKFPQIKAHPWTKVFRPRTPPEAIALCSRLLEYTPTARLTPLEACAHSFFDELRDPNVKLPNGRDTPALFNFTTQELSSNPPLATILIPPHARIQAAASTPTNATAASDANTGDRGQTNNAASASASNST
PLK2 (h), sequence (Q9NYY3 whole entry): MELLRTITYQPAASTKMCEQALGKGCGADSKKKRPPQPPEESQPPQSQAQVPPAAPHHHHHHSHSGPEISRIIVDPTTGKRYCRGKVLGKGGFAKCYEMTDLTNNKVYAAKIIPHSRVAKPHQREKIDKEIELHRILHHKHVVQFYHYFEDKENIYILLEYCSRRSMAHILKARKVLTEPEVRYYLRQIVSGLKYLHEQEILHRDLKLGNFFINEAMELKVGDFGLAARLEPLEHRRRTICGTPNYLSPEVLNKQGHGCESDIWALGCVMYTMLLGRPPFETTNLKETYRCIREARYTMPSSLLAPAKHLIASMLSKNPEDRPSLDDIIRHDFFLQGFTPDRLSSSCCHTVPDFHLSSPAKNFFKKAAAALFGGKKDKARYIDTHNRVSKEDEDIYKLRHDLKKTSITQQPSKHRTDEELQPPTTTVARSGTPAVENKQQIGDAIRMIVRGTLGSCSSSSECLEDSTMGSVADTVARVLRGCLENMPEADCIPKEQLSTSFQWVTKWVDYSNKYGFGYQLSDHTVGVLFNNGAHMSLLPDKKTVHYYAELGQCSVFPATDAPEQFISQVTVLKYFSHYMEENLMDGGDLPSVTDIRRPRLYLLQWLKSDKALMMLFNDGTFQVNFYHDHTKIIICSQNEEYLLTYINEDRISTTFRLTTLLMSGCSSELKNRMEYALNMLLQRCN
PLK1 T210D (h), sequence (P53350 whole entry T210D): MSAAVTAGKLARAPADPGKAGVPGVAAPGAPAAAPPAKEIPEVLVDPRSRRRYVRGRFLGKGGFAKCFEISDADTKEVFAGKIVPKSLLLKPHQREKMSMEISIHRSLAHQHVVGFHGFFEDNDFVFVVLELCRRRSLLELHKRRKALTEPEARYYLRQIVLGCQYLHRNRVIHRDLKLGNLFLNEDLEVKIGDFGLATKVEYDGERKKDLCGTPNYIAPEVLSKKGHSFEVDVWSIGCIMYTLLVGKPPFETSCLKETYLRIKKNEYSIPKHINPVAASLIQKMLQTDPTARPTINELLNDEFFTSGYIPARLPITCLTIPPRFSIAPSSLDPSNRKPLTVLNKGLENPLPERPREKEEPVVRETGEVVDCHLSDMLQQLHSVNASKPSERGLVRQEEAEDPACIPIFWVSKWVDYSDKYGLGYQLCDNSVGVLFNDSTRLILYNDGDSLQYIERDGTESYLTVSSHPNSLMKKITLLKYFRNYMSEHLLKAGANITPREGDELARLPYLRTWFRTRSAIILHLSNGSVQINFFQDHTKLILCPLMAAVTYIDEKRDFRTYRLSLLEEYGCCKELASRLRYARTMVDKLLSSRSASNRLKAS
CDK4/CyclinD1 (h), sequence (P11802 whole entry): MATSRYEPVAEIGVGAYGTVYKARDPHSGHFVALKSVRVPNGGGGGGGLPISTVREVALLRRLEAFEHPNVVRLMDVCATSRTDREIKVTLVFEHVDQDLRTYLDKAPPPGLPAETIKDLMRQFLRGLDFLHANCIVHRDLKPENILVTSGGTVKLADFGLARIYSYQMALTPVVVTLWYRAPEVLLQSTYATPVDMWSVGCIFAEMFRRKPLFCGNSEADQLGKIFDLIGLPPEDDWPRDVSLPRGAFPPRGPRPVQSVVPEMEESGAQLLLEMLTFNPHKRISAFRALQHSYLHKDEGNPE
CDK4/CyclinD1 (h), sequence (P24385 whole entry partner): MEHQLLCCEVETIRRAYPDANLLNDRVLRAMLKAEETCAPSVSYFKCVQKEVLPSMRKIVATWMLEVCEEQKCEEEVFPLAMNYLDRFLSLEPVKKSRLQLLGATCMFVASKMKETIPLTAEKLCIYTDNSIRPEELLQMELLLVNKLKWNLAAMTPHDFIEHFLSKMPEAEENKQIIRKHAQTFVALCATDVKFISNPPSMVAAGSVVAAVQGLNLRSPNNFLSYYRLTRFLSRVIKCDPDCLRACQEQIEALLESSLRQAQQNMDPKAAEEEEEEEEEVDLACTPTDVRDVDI
PLK4 (h), sequence (O00444 whole entry): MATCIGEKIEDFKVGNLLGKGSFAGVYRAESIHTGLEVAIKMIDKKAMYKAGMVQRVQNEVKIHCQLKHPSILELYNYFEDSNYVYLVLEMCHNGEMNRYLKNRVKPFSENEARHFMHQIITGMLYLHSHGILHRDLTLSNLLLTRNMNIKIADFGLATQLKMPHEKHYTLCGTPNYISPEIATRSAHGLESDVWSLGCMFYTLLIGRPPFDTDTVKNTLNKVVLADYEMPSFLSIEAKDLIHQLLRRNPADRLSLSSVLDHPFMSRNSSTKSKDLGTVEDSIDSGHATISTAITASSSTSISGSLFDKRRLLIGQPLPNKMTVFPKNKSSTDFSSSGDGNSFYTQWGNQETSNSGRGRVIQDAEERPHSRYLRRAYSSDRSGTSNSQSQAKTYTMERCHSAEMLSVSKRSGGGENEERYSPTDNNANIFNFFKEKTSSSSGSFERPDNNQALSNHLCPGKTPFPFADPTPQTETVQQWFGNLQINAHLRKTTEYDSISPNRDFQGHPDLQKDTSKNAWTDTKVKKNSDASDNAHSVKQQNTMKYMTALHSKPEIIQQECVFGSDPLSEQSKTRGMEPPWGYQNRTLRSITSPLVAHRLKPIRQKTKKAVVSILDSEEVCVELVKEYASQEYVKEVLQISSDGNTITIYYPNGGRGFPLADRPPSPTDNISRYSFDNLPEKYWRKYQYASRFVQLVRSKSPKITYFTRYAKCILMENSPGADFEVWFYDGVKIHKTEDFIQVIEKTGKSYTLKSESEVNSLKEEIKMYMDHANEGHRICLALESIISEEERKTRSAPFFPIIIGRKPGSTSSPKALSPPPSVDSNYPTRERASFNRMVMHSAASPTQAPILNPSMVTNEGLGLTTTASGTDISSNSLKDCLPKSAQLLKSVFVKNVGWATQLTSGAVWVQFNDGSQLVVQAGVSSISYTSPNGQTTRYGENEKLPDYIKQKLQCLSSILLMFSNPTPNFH

Row | IC50 [1] | IC50 [2] | IC50 [5] | IC50 [6] | IC50 [7] | IC50 [8] | IC50 [9] | IC50 [10] | IC50 [11] | IC50 [12] | IC50 [13] | SMILES | IC50 [3] | IC50 [4]
1 | > 10 µM | > 10 µM | > 10 µM | > 10 µM | > 10 µM | > 10 µM | 8.71 µM | > 10 µM | > 10 µM | 6.61 µM | > 10 µM | O=C1NCc2cccc(c2)-c2ccnc(n2)Nc2cccc(c2)CN2CCC[C@@H]12 [Compound 53] | 0.126 µM | 
2 | 1.7 µM | > 10 µM | > 10 µM | > 10 µM | > 10 µM | > 10 µM | 5.13 µM | > 10 µM | 6.76 µM |  |  | O=C1NCCNCc2ccc(cc2)-c2ccnc(n2)Nc2ccc(N3CCOCC3)c(c2)CN2CCC1CC2 [Compound 71] | > 10 µM | 9.77 µM
3 | 0.692 µM | > 10 µM | > 10 µM | > 10 µM | > 10 µM | > 10 µM | > 10 µM | > 10 µM | > 10 µM |  |  | O=C1CN2CCN(CC2)Cc2cc(ccc2N2CCOCC2)Nc2nccc(n2)-c2ccc(cc2)CNCCN1 [Compound 125] | > 10 µM | > 10 µM
4 | 1.51 µM | > 10 µM | > 10 µM | > 10 µM | > 3.02 µM | > 10 µM | 1.95 µM | > 10 µM | > 10 µM | 8.91 µM | > 10 µM | COc1cc2cc(c1)Nc1nccc(n1)-c1ccc(cc1)CN(C)CCCNC(=O)CN1CCN(CC1)C2 [Compound 133] |  | > 10 µM

Row | SMILES | IC50 [1] | IC50 [2] | IC50 [5] | IC50 [6] | IC50 [7] | IC50 [8] | IC50 [9] | IC50 [10] | IC50 [11] | IC50 [12] | IC50 [13] | IC50 [3] | IC50 [4]
5 | COc1ccc2cc1CNCCCNC(=O)C1CCN(CC1)Cc1cc(ccc1N1CCOCC1)Nc1nccc-2n1 [Compound 3] | 0.0871 µM | 1.55 µM | > 10 µM | > 10 µM | > 10 µM | > 10 µM | > 10 µM | > 10 µM | > 10 µM |  |  | > 10 µM | > 10 µM
6 | COc1ccc2cc1CNCCCNC(=O)CN1CCN(CC1)Cc1cc(ccc1N1CCOCC1)Nc1nccc-2n1 [Compound 13] | 0.49 µM | 4.17 µM | > 10 µM | > 10 µM | > 10 µM | > 10 µM | > 10 µM | > 10 µM | > 10 µM |  |  | > 10 µM | > 10 µM
7 | CN1CCN(Cc2cc3cc(c2)Nc2nccc(n2)-c2cccc(c2)CNC(=O)[C@@H]2CCCN2C3)CC1 [Compound 28] |  | > 10 µM | 1.66 µM | > 10 µM | > 10 µM | > 10 µM | 0.363 µM | 2.24 µM | 1.62 µM | 0.158 µM | 0.55 µM | 0.112 µM | 0.603 µM
